Reference: article PMC10221074, “Functional Profiling of the A-Family of Venom Peptides from the Wolf Spider Lycosa shansia” (Toxins, 2023)

Assays:
[1] = system: B/Malaysia/2506/2004 (B-Mal); format: cell-based, influenza virus
A/Hamburg/05/2009 (H1N1) = format: cell-based, influenza virus
A/Hessen/1/2003 (H3N2) = format: cell-based, influenza virus
[2] = system: panel of seven bacterial strains; test: Antibacterial growth assay (OD600), statements on the whole panel; format: cell-based; conditions: growth after 48 h
[3] = system: Pseudomonas aeruginosa DSM 1117; test: Antibacterial growth assay (OD600); conditions: for Bacterial growth relative to medium, P. aeruginosa (1117), replicate 1 / Bacterial growth relative to medium, P. aeruginosa (1117), replicate 2 / Bacterial growth relative to medium, P. aeruginosa (1117), replicate 3: OD600, medium = 100, MH II broth; for Bacterial growth relative to medium, P. aeruginosa (1117), replicate 1: replicate column 1; for Bacterial growth relative to medium, P. aeruginosa (1117), replicate 2: replicate column 2; for Bacterial growth relative to medium, P. aeruginosa (1117), replicate 3: replicate column 3
Description: (§1) Cryo-conserved cultures of selected bacterial strains (Table 4) were transferred to Tryptic Soy Agar (TSA) plates (Carl Roth) with a sterile inoculation loop, sealed with Parafilm (BEMIS, Neenah, WI, USA), and incubated for 1–2 days at 37 °C depending on growth. Single colonies were picked and transferred into 2–3 mL of the Mueller–Hinton II (MH II) broth (BD, Heidelberg, Germany). The bacteria were cultivated overnight, subcultured on fresh medium and grown for 3–4 h before testing at 37 °C, with shaking at 180 rpm. We measured the optical density at 600 nm (OD600) of 1 mL of the bacterial suspensions in polystyrene cuvettes (SARSTED, Nümbrecht, Germany) using an Ultrospec 10 spectrophotometer (Biochrome, Cambridge, UK). We then diluted them with the MH II medium to the preferred OD600 (Table 2). The peptides were dissolved in DMSO to generate 10 mmol/L stocks and diluted with the MH II medium to 200 µM before the assay. We used 10 µg/mL (~40 µg/mL for S. epidermidis) gentamicin and colistin (Sigma-Aldrich, Taufkirchen, Germany), DMSO and the medium only as controls. The bacteria were transferred to 96-multiwell plates with a final volume of 100 µL per well (50 µL bacterial suspension, and 50 µL test peptide). The OD600 was measured at 0, 24 and 48 h using a BioTek Eon microplate reader followed by analysis with Gen5 v2.09.

[4] = system: Pseudomonas aeruginosa DSM 50071; test: Antibacterial growth assay (OD600); conditions: for Bacterial growth relative to medium, P. aeruginosa (50071), replicate 1 / Bacterial growth relative to medium, P. aeruginosa (50071), replicate 2 / Bacterial growth relative to medium, P. aeruginosa (50071), replicate 3: OD600, medium = 100, MH II broth; for Bacterial growth relative to medium, P. aeruginosa (50071), replicate 1: replicate column 1; for Bacterial growth relative to medium, P. aeruginosa (50071), replicate 2: replicate column 2; for Bacterial growth relative to medium, P. aeruginosa (50071), replicate 3: replicate column 3
[5] = system: Micrococcus luteus DSM 20030; test: Antibacterial growth assay (OD600); conditions: OD600, medium = 100, MH II broth; for Bacterial growth relative to medium, M. luteus, replicate 1: replicate column 1; for Bacterial growth relative to medium, M. luteus, replicate 2: replicate column 2; for Bacterial growth relative to medium, M. luteus, replicate 3: replicate column 3
[6] = system: Staphylococcus aureus DSM 2569; test: Antibacterial growth assay (OD600); conditions: OD600, medium = 100, MH II broth; for Bacterial growth relative to medium, S. aureus, replicate 1: replicate column 1; for Bacterial growth relative to medium, S. aureus, replicate 2: replicate column 2; for Bacterial growth relative to medium, S. aureus, replicate 3: replicate column 3
Description: as §1

[7] = system: Escherichia coli BL21(DE3); test: Antibacterial growth assay (OD600); conditions: OD600, medium = 100, MH II broth; for Bacterial growth relative to medium, E. coli, replicate 1: replicate column 1; for Bacterial growth relative to medium, E. coli, replicate 2: replicate column 2; for Bacterial growth relative to medium, E. coli, replicate 3: replicate column 3
[8] = system: Listeria monocytogenes DSM 20600; test: Antibacterial growth assay (OD600); conditions: for Bacterial growth relative to medium, L. monocytogenes, replicate 1 / Bacterial growth relative to medium, L. monocytogenes, replicate 2 / Bacterial growth relative to medium, L. monocytogenes, replicate 3: OD600, medium = 100, MH II broth; for Bacterial growth relative to medium, L. monocytogenes, replicate 1: replicate column 1; for Bacterial growth relative to medium, L. monocytogenes, replicate 2: replicate column 2; for Bacterial growth relative to medium, L. monocytogenes, replicate 3: replicate column 3
[9] = system: Staphylococcus epidermidis DSM 28319; test: Antibacterial growth assay (OD600); conditions: for Bacterial growth relative to medium, S. epidermidis, replicate 1: replicate column 1; for Bacterial growth relative to medium, S. epidermidis, replicate 2: replicate column 2; for Bacterial growth relative to medium, S. epidermidis, replicate 3: replicate column 3
[10] = 37 °C, peptide 200 µM mixed 50 µL + 50 µL with bacteria, Figure 7: 48 h
[11] = OD600, medium = 100, MH II broth, 37 °C, peptide 200 µM mixed 50 µL + 50 µL with bacteria, Figure 7: 48 h
[12] = antibiotic control, table line says 10µg/mL (methods: ~40 µg/mL for S. epidermidis), OD600, medium = 100

SLFGLLDLVKSKVGQTGLL [LS-AMP-A1]
Viability of infected cells relative to aprotinin, Replicate 1 [1]: 0.04827
Viability of infected cells relative to aprotinin, Replicate 2 [1]: 0.03878
Viability of infected cells relative to aprotinin, Replicate 3 [1]: 0.05872
Viability of infected cells relative to aprotinin, Replicate 1 (A/Hamburg/05/2009 (H1N1)): 0.03121
Viability of infected cells relative to aprotinin, Replicate 2 (A/Hamburg/05/2009 (H1N1)): 0.03837
Viability of infected cells relative to aprotinin, Replicate 3 (A/Hamburg/05/2009 (H1N1)): 0.04316
Viability of infected cells relative to aprotinin, Replicate 1 (A/Hessen/1/2003 (H3N2)): 0.185
Viability of infected cells relative to aprotinin, Replicate 2 (A/Hessen/1/2003 (H3N2)): 0.1781
Viability of infected cells relative to aprotinin, Replicate 3 (A/Hessen/1/2003 (H3N2)): 0.1313
Antibacterial activity over the panel (in words) [2]: limited activity
Bacterial growth relative to medium, P. aeruginosa (1117), replicate 1 [3, 10]: 79.0357
Bacterial growth relative to medium, P. aeruginosa (1117), replicate 2 [3, 10]: 70.5187
Bacterial growth relative to medium, P. aeruginosa (1117), replicate 3 [3, 10]: 73.1051
Bacterial growth relative to medium, P. aeruginosa (50071), replicate 1 [4, 10]: 100.105
Bacterial growth relative to medium, P. aeruginosa (50071), replicate 2 [4, 10]: 111.979
Bacterial growth relative to medium, P. aeruginosa (50071), replicate 3 [4, 10]: 89.7927
Bacterial growth relative to medium, M. luteus, replicate 1 [5, 10]: 73.9935
Bacterial growth relative to medium, M. luteus, replicate 2 [5, 10]: 135.023
Bacterial growth relative to medium, M. luteus, replicate 3 [5, 10]: 50.2152
Bacterial growth relative to medium, S. aureus, replicate 1 [6, 10]: 106.033
Bacterial growth relative to medium, S. aureus, replicate 2 [6, 10]: 110.791
Bacterial growth relative to medium, S. aureus, replicate 3 [6, 10]: 108.193
Bacterial growth relative to medium, E. coli, replicate 1 [7, 10]: 153.553
Bacterial growth relative to medium, E. coli, replicate 2 [7, 10]: 169.757
Bacterial growth relative to medium, E. coli, replicate 3 [7, 10]: 114.343
Bacterial growth relative to medium, L. monocytogenes, replicate 1 [8, 10]: 93.4804
Bacterial growth relative to medium, L. monocytogenes, replicate 2 [8, 10]: 90.3626
Bacterial growth relative to medium, L. monocytogenes, replicate 3 [8, 10]: 102.296
Bacterial growth relative to medium, S. epidermidis, replicate 1 [9, 11]: 132.924
Bacterial growth relative to medium, S. epidermidis, replicate 2 [9, 11]: 152.819
Bacterial growth relative to medium, S. epidermidis, replicate 3 [9, 11]: 103.22

SLLGLLDVVKSKIGQTG [LS-AMP-A14]
Viability of infected cells relative to aprotinin, Replicate 1 [1]: 0.05534
Viability of infected cells relative to aprotinin, Replicate 2 [1]: 0.06456
Viability of infected cells relative to aprotinin, Replicate 3 [1]: 0.1102
Viability of infected cells relative to aprotinin, Replicate 1 (A/Hamburg/05/2009 (H1N1)): 0.03385
Viability of infected cells relative to aprotinin, Replicate 2 (A/Hamburg/05/2009 (H1N1)): 0.02545
Viability of infected cells relative to aprotinin, Replicate 3 (A/Hamburg/05/2009 (H1N1)): 0.02099
Viability of infected cells relative to aprotinin, Replicate 1 (A/Hessen/1/2003 (H3N2)): 0.07143
Viability of infected cells relative to aprotinin, Replicate 2 (A/Hessen/1/2003 (H3N2)): 0.146
Viability of infected cells relative to aprotinin, Replicate 3 (A/Hessen/1/2003 (H3N2)): 0.0602
Viability of infected cells relative to aprotinin, Replicate 4 (A/Hessen/1/2003 (H3N2); […], replicate 4 (additional internal control)): 0.04395
Bacterial growth relative to medium, P. aeruginosa (1117), replicate 1 [3, 10]: 84.8429
Bacterial growth relative to medium, P. aeruginosa (1117), replicate 2 [3, 10]: 62.4783
Bacterial growth relative to medium, P. aeruginosa (1117), replicate 3 [3, 10]: 58.9547
Antibacterial activity (in words) ([3]; P. aeruginosa DSM 1117, growth after 48 h): weak activity
Bacterial growth relative to medium, P. aeruginosa (50071), replicate 1 [4, 10]: 100.972
Bacterial growth relative to medium, P. aeruginosa (50071), replicate 2 [4, 10]: 116.001
Bacterial growth relative to medium, P. aeruginosa (50071), replicate 3 [4, 10]: 81.6852
Antibacterial activity (in words) ([4]; P. aeruginosa DSM 50071, growth after 48 h): weak activity
Bacterial growth relative to medium, M. luteus, replicate 1 [5, 10]: 101.208
Bacterial growth relative to medium, M. luteus, replicate 2 [5, 10]: 114.302
Bacterial growth relative to medium, M. luteus, replicate 3 [5, 10]: 44.4763
Bacterial growth relative to medium, S. aureus, replicate 1 [6, 10]: 81.4506
Bacterial growth relative to medium, S. aureus, replicate 2 [6, 10]: 83.1916
Bacterial growth relative to medium, S. aureus, replicate 3 [6, 10]: 66.5171
Bacterial growth relative to medium, E. coli, replicate 1 [7, 10]: 109.705
Bacterial growth relative to medium, E. coli, replicate 2 [7, 10]: 98.8412
Bacterial growth relative to medium, E. coli, replicate 3 [7, 10]: 96.3776
Antibacterial activity (in words) ([8]; L. monocytogenes DSM 20600, growth after 48 h): more active
Bacterial growth relative to medium, L. monocytogenes, replicate 1 [8, 10]: 102.734
Bacterial growth relative to medium, L. monocytogenes, replicate 2 [8, 10]: 82.6703
Bacterial growth relative to medium, L. monocytogenes, replicate 3 [8, 10]: 49.785
Bacterial growth relative to medium, S. epidermidis, replicate 1 [9, 11]: 97.145
Bacterial growth relative to medium, S. epidermidis, replicate 2 [9, 11]: 104.641
Bacterial growth relative to medium, S. epidermidis, replicate 3 [9, 11]: 74.4979

colistin [Polymyx, reference compound]
Bacterial growth relative to medium, P. aeruginosa (1117), replicate 1 ([3]; antibiotic control 10µg/mL): 8.3082
Bacterial growth relative to medium, P. aeruginosa (1117), replicate 2 ([3]; antibiotic control 10µg/mL): 7.355
Bacterial growth relative to medium, P. aeruginosa (1117), replicate 3 ([3]; antibiotic control 10µg/mL): 3.543
Bacterial growth relative to medium, P. aeruginosa (50071), replicate 1 ([4]; antibiotic control 10µg/mL): 5.416
Bacterial growth relative to medium, P. aeruginosa (50071), replicate 2 ([4]; antibiotic control 10µg/mL): 11.2545
Bacterial growth relative to medium, P. aeruginosa (50071), replicate 3 ([4]; antibiotic control 10µg/mL): 11.5437
Bacterial growth relative to medium, M. luteus, replicate 1 ([5]; antibiotic control 10µg/mL): 34.787
Bacterial growth relative to medium, M. luteus, replicate 2 ([5]; antibiotic control 10µg/mL): 53.8113
Bacterial growth relative to medium, M. luteus, replicate 3 ([5]; antibiotic control 10µg/mL): 47.1539
Bacterial growth relative to medium, S. aureus, replicate 1 ([6]; antibiotic control 10µg/mL): 85.0041
Bacterial growth relative to medium, S. aureus, replicate 2 ([6]; antibiotic control 10µg/mL): 99.7935
Bacterial growth relative to medium, S. aureus, replicate 3 ([6]; antibiotic control 10µg/mL): 95.4465
Bacterial growth relative to medium, E. coli, replicate 1 ([7]; antibiotic control 10µg/mL): 15.553
Bacterial growth relative to medium, E. coli, replicate 2 ([7]; antibiotic control 10µg/mL): 16.1645
Bacterial growth relative to medium, E. coli, replicate 3 ([7]; antibiotic control 10µg/mL): 11.9401
Bacterial growth relative to medium, L. monocytogenes, replicate 1 ([8]; antibiotic control 10µg/mL): 82.3087
Bacterial growth relative to medium, L. monocytogenes, replicate 2 ([8]; antibiotic control 10µg/mL): 64.4034
Bacterial growth relative to medium, L. monocytogenes, replicate 3 ([8]; antibiotic control 10µg/mL): 78.447
Bacterial growth relative to medium, S. epidermidis, replicate 1 [9, 12]: 77.611
Bacterial growth relative to medium, S. epidermidis, replicate 2 [9, 12]: 72.7124
Bacterial growth relative to medium, S. epidermidis, replicate 3 [9, 12]: 81.8478
